Experimental data as given in patent US8088749B2, “Compositions and methods for treating cancer” (The Regents of the University of Michigan, priority 2007, dated 2012).

Assays:
Format in all cases: cell-based, human
H2AX = H2AX phosphorylation after gemcitabine, Panc-1 cells; settings: control Panc-1 cells, gemcitabine 50 uM
Source text: […] Top, flowcytometric analysis of γH2AX and propidium iodide staining of DNA content. […] Bottom, comparison of the total DNA content of the population (black) versus the γH2AX-positive fraction (green). Results are representative 3 separate experiments.

ATDC [1] = experiment: ATDC phosphorylation in transfected HEK293 cells
Method: (B) Knockdown of ATM by specific ATM shRNA prevents IR induced phosphorylation of ATDC in Panc1 cells (n=3). (C) IR-dependent phosphorylation of ATDC occurs at serine 550. HEK 293 cells over-expressing wild type or S550A mutant ATDC were treated with IR (10 Gy) for varyin times (0-60 min). Cell lysates were harvested and co-immunoprecipitation experiments were performed using anti-ATDC and anti-phospho-serine/threonine antibodies. Results are representative of three separate experiments (D) Gemcitabine induces phosphorylation of ATDC in transfected HEK293 cells.
ATDC has overlapping function with ATM in cell cycle checkpoint activation and that trafficking of ATDC to DNA repair foci was dependent on ATM (see, e.g., FIGS. 4,6,7,8). ATDC had been shown previously to undergo phosphorylation on serine/threonine in A431 cells (see, e.g., Laderoute K R, et al., Int J Cancer 1996; 66: 772-778). It was hypothesized therefore that ATDC is a phosphorylation target of ATM and ATR. It is known that phosphorylation targets of ATM/ATR share a common motif, with either a serine or threonine residue, usually followed by a glutamine (the SQ or TQ motif) (see, e.g., Ziv Y, et al., Nature Cell Biol 2006; 8: 870-876). […] It was verified that ATDC functioned downstream of ATM, since silencing of ATDC had no effect on the phosphorylation of ATM in response to IR (FIG. 11A). […]

ATDC [2] = experiment: ATDC nuclear foci by immunofluorescence after gemcitabine, Panc-1 cells; settings: gemcitabine (amount/time); 50 uM
Source text: (A). Panc1 cells exposed to IR (5 Gy, 1 hr) were fixed and costained with anti-ATDC (red) and anti-γH2AX (green) antibodies. […] Cell nuclei were counterstained with DAPI (blue). (B) Panc-1 cells exposed to IR (5 Gy, 1 hr) and co-immunostained with anti-ATDC antibody (red) and anti-p-ATM antibody (green). Co-localization of ATDC (red) with p-ATM (green) is observed in yellow in the merged image. Experiments were repeated twice with similar results. […] Results representative of 3 separate experiments.
It has been well-documented that in response to DNA damage, numerous proteins involved in the DNA damage response traffic to discrete nuclear foci. […] Using double immunofluorescence staining, it was observed that ATDC co-localized with γH2AX (FIG. 7A), presumably at DNA damage foci. […] ATDC co-localized with ATR following gemcitabine treatment (FIG. 7B). The time course of ATDC localizing to DNA damage foci was similar to the time course of the formation of foci of phosphorylated H2AX. Whether ATDC is required for the formation of γH2AX and/or ATR foci in pancreatic cancer cells following gemcitabine was investigated.

p53 and Chk1 = experiment: Phosphorylation of p53 and Chk1 in response to gemcitabine, Panc-1 cells; settings: gemcitabine 10 μM; control shRNA Panc-1 cells
Method: To further investigate the role of ATDC in the DNA damage response, the effect of silencing ATDC on phosphorylation of p53 and Chk1 was investigated. In response to gemcitabine (10 μM), replication forks stall and the ATR signaling cascade is activated, which phosphorylates and activates several proteins critical to inducing the G1-S cell cycle checkpoint, including p53 and Chk1 (see, e.g., Ljungman M, Mutation Res 2005; 577: 203-216).

## Nc1ccn([C@@H]2O[C@H](CO)[C@@H](O)C2(F)F)c(=O)n1 [gemcitabine]
H2AX
  time of induction of H2AX phosphorylation: ≤ 10 min
  time of return of H2AX phosphorylation to basal levels: 1 h
H2AX; x hours
  H2AX phosphorylation: transient H2AX phosphorylation
ATDC [1]
  phosphorylation of ATDC: induces
ATDC [2]
  ATDC nuclear foci formation: ATDC formed discrete nuclear foci
p53 and Chk1
  phosphorylation of p53 and Chk1: underwent phosphorylation
